How the values were obtained:
[1] = system: calcineurin; assay: Phosphotyrosine phosphatase assay with the substrate fluoresceinmonophosphate (FMP); assay type: biochemical; settings: FMP as substrate, Lineweaver-Burk method
Protocol: 20. Calcineurin phosphatase assay—100 ng-4 μg recombinant calcineurin (calcineurin-A/B heterodimer), 100 ng-1 μg purified bovine brain calcineurin (Sigma Aldrich, Deisenhofen, Germany) or 100 μg homogenized tissue or cell extracts were used for classical calcineurin phosphatase assays. 100 μg cells or tissue were homogenized exactly as described (Stemmer et al., 1995). Partly purified and redox sensitive calcineurin was prepared by centrifugation at 14,000 rpm at 4° C. for 10 min (Eppendorf centrifuge 5417R) and the resulting supernatant was separated on a 1.5×10 cm Sephadex-G50 gelfiltration column as described (Stemmer et al., 1995), (Gold et al., 1997). […] After starting the enzymatic reaction with para-nitrophenylphosphate or fluoresceinmonophosphate the absorbance at 405 nm (para-nitrophenylphosphate) or fluorescence λ exication=485 nm; λ emission=520 nm) was monitored over 20 min at 30° C. using a UV/VIS/fluorescence microplate photometer (Biolumin 960 kinetic fluorescence/absorbance photometer, Molecular Dynamics). […] The protective effect of CuZnSOD against redox inactivation of calcineurin was determined by addition of 3 μg recombinant human wild-type or mutated CuZnSOD (constant CuZnSOD protein) or addition of 1.67 units of recombinant human wild-type or mutated CuZnSOD (constant CuZnSOD activity). […] The quantity of released phosphate was determined by a scintillation counting. […]

[2] = system: calcineurin; assay: Protective effect of CuZnSOD against calcium induced redox inactivation of calcineurin (FK506 inhibitable RII-phosphopeptide activity); assay type: biochemical; settings: 20 min vs 0 min; for Percentage of FK506 inhibitable RII-phosphopeptide activity after 20 min compared with the activity at 0 min, constant protein (3 μg): 3 μg CuZnSOD; for Percentage of FK506 inhibitable RII-phosphopeptide activity after 20 min compared with the activity at 0 min, constant activity (1.67 U): 1.67 U CuZnSOD
Protocol: 20. Calcineurin phosphatase assay—100 ng-4 μg recombinant calcineurin (calcineurin-A/B heterodimer), 100 ng-1 μg purified bovine brain calcineurin (Sigma Aldrich, Deisenhofen, Germany) or 100 μg homogenized tissue or cell extracts were used for classical calcineurin phosphatase assays. 100 μg cells or tissue were homogenized exactly as described (Stemmer et al., 1995). Partly purified and redox sensitive calcineurin was prepared by centrifugation at 14,000 rpm at 4° C. for 10 min (Eppendorf centrifuge 5417R) and the resulting supernatant was separated on a 1.5×10 cm Sephadex-G50 gelfiltration column as described (Stemmer et al., 1995), (Gold et al., 1997). Phosphotyrosine phosphatase assay was performed in microplates (100 μl total assay volume) either using 30 μM fluoresceinmonophosphate or 20 mM para-nitrophenylphosphate (Sigma Aldrich, Deisenhofen, Germany); 10 μl recombinant, purified or partly purified and assay buffer (25 mM Tris/HCl, pH 7; 2 mM CaCl2; 0.1 μM calmodulin; 25 μM FK506). After starting the enzymatic reaction with para-nitrophenylphosphate or fluoresceinmonophosphate the absorbance at 405 nm (para-nitrophenylphosphate) or fluorescence λ exication=485 nm; λ emission=520 nm) was monitored over 20 min at 30° C. using a UV/VIS/fluorescence microplate photometer (Biolumin 960 kinetic fluorescence/absorbance photometer, Molecular Dynamics). Phosphoserine phosphatase assay was performed as described (Hubbard and Klee, 1991), (Wang et al., 1996). […] The protective effect of CuZnSOD against redox inactivation of calcineurin was determined by addition of 3 μg recombinant human wild-type or mutated CuZnSOD (constant CuZnSOD protein) or addition of 1.67 units of recombinant human wild-type or mutated CuZnSOD (constant CuZnSOD activity). The reaction mixture was incubated for 2 min at 30° C. and stopped with 100 mM potassium phosphate/5% TCA. The reaction mixture was passed through a 0.5 ml ion-exchange column (Dowex; AG 50W-X8, BioRad) and the unbound phosphate eluted with 0.5 ml water. The quantity of released phosphate was determined by a scintillation counting.
Protective Effect of CuZnSOD of Calcium Induced Inactivation of Calcineurin
Percentage of FK506 inhibitable RII-phosphopeptide activity after 20 min compared with the activity at 0 min

[3] = SOD assay (enzymatic activity of the CuZnSOD proteins); assay type: biochemical
Protocol: 8. SOD assay and activity staining—Enzymatic activity of the CuZnSOD proteins were either analyzed by 10% native gel electrophoresis and activity staining with nitrotetrazolium blue dye or by a quantitative spectrophotometrically assay according to published protocols (Beauchamp and Fridovich, 1971; Nebot et al., 1993). Protein yields were determined by the Bradford method (Protein assay kit, BioRAD, Hercules, Calif., USA). The concentration of purified CuZnSOD was determined spectrophotometrically using the extinction coefficient 265=1.84×10^4 M^−1 cm^−1.

[4] = system: calcineurin-A/B heterodimer; assay: Laser fluctuation correlation spectroscopy, binding of fluorescence labeled CuZnSOD to calcineurin; design: species or system human; settings: labeled CuZnSOD alone 41 kDa; expected 114 kDa
Description: 21. High Throughput BioAssay using recombinant calcineurin-A, recombinant calcineurin-B, calmodulin and recombinant CuZnSOD (analytical assay to identify activators or inhibitors of CuZnSOD/calcineurin interaction)—Laser fluctuation correlation spectroscopy (FCS) is a useful tool to quantify ligand—ligand interactions. The fluorescence F(t) of a optical well defined volume element which is excitated by a confocal laser is monitored as a function of time. The temporal autocorrelation of the fluorescence fluctuation δ F(t) yields the time scale of this dynamics and the average number of independent fluorophores in the probe volume. If the fluorescene fluctuation arise from diffusive motion and from fluorescence sensitive reaction, fluorescent fluctuation correlation function signal is approximated by the formula: GDR(τ)=GDiff(τ)*[1+A*exp(−kR*τ)] • τ=fluorescence correlation time • kR=apparent binding constant of the fluorescent labeled ligand • A=equilibrium coefficent dependent constant
If one measurement is performed with a solution only containing the fluorescent labeled ligand and a second measurement is performed with a solution containing the fluorescent labeled ligand and an interacting molecule the correlation function GDR can be separately analyzed and yields binding parameters of the interacting molecules. […]

Row | Molecule | Vmax [1] [µmol/min] | Km ([1]; Michaelis-Menten kinetic assumed) [µM] | Percentage of FK506 inhibitable RII-phosphopeptide activity after 20 min compared with the activity at 0 min, constant protein (3 μg) [2] | Percentage of FK506 inhibitable RII-phosphopeptide activity after 20 min compared with the activity at 0 min, constant activity (1.67 U) [2] | CuZnSOD activity per mg protein [3] | hydrodynamic radius / apparent molecular weight after addition of calcineurin-A/B heterodimer [4] [kDa]
1 | O=C1OC2(c3ccc(O)cc3Oc3cc(OP(=O)(O)O)ccc32)c2ccccc21 (stereo not shown) [FMP, fluoresceinmonophosphate] | 400 | 40 |  |  |  | 
2 | erythrocyte wild-type: purified human erythrocyte CuZnSOD (Sigma Aldrich) [reference compound] |  |  | 57 +/− 10% | 57 +/− 10% | (8330 U/mg) | 
3 | labeled CuZnSOD: recombinant CuZnSOD labeled with Oregon-Green-514 dye |  |  |  |  |  | 90
4 | recomb. mutation A4V: recombinant human CuZnSOD with substitution Ala-4 -> Val-4 |  |  | 22 +/− 27% | 8 +/− 3% | (1820 U/mg) | 
5 | recomb. mutation D90A: recombinant human CuZnSOD with substitution Asp-90 -> Ala-90 |  |  | 42 +/− 17% | 32 +/− 15% | (4590 U/mg) | 180.000
6 | recomb. mutation G93A: recombinant human CuZnSOD with substitution Gly-93 -> Ala-93 |  |  | 16 +/− 16% | 21 +/− 22% | (2130 U/mg) | 
7 | recombinant wild-type: recombinant human wild-type copper/zinc superoxide dismutase expressed in E. coli |  |  | 70 +/− 33% | 56 +/− 22% | (6380 U/mg) | 
